Assay results: patent US8846710B2, “Method of preferentially inducing the biosynthesis of interferon” (3M Innovative Properties Company, priority 2005, dated 2014)

Legend:
interferon (α) (IFN-α) = test: Cytokine induction in human cells: IFN-α secreted by PBMC into culture media (ELISA); format: cell-based; details: for Maximal Response IFN / Minimum Effective Concentration IFN / minimal effective concentration: human PBMC; for Maximal Response IFN / Minimum Effective Concentration IFN: median where tested in more than one experiment; for minimal effective concentration: lowest tested concentration inducing IFN-α over usually 20 pg/mL, median where more than one experiment, read-out: Minimum Effective Concentration (μM) IFN; for Maximal Response (pg/mL) IFN: maximal response in dose response curve, median
Outline: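 IFN-α secreted by density-gradient-isolated PBMC (final 2×10^6 cells/mL) was quantified by ELISA after 18–24 h compound exposure at 37 °C, typically 30-0.014 μM in 3-fold steps with ≤1% DMSO. Readings corrected for background and reference-compound variability; lowest concentration above usually 20 pg/mL reported, plus maximal response (pg/mL).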

[1] = system: tumor necrosis factor (α) (TNF-α); test: Cytokine induction in human cells: TNF-α secreted by PBMC into culture media (ORIGEN M-Series immunoassay); format: cell-based; details: for Minimum Effective Concentration TNF / Maximal Response TNF / minimal effective concentration: human PBMC; for Minimum Effective Concentration TNF: median where tested in more than one experiment; for Maximal Response TNF / Maximal Response (pg/mL) TNF: median; for minimal effective concentration: lowest tested concentration inducing TNF-α over usually 40 pg/mL, median where more than one experiment, read-out: Minimum Effective Concentration (μM) TNF; for Maximal Response (pg/mL) TNF: maximal response in dose response curve
Outline: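 Secreted TNF-α (pg/mL) was quantified by ORIGEN M-Series immunoassay after 18 to 24 hours culture at 37° C of human PBMC (2×10^6 cells/mL final) with test compound (usually 30-0.014 μM, 3-fold series, DMSO ≤1%). Values were corrected for DMSO or experimental background and a reference-compound ratio, giving a minimum effective concentration.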

[2] = Table 11, * = TNF below experimental background of 40 pg/mL
[3] = Table 10, * = below experimental background level
[4] = Table 12, * = below the experimental background of 40 pg/mL

Row | Structure (SMILES) | Maximal Response IFN (interferon (α) (IFN-α); Table 11) [pg/mL] | Minimum Effective Concentration IFN (interferon (α) (IFN-α); Table 11) [µM] | Minimum Effective Concentration TNF ([1]; Table 11) [µM] | Maximal Response TNF [1, 2] [pg/mL] | other results
1 | CCOCc1nc2c(N)nc3ccccc3c2n1CCCNC(=O)N1CCOCC1 [Analog 88] | 6670 | 0.12 | 1.11 | 1379 | –
2 | CCOCc1nc2c(N)nc3cccnc3c2n1CC(C)(C)NS(C)(=O)=O [Analog 130, N-[2-(4-amino-2-ethoxoxymethyl-1H-imidazo[4,5-c][1,5]naphthyridin-1-yl)-1,1-dimethylethyl]methanesulfonamide] | – | – | – | – | Minimum Effective Concentration IFN (interferon (α) (IFN-α); Table 12): 0.04 µM; Minimum Effective Concentration TNF ([1]; Table 12): 0.37 µM
3 | Cc1ccc(-c2ccc3c(c2)nc(N)c2nc(CO)n(CC(C)(C)O)c23)cc1 [Example 165] | – | – | – | – | minimal effective concentration (interferon (α) (IFN-α); Table 10): 0.37 µM; minimal effective concentration ([1]; Table 10): 0.37 µM
4 | CCCc1nc2c(N)nc3cc(-c4cccnc4)ccc3c2n1CCCCNC(=O)NC1CCCC1 [Analog 34] | – | – | – | – | minimal effective concentration (interferon (α) (IFN-α); Table 10): 0.014 µM; Maximal Response (pg/mL) IFN (interferon (α) (IFN-α); [3]): 649 pg/mL; minimal effective concentration ([1]; Table 10): 0.37 µM; Maximal Response (pg/mL) TNF [1, 3]: 9019 pg/mL
5 | COCCc1nc2c(N)nc3ccccc3c2n1CCOCCN(C)S(C)(=O)=O [Analog 80] | 1630 | 0.014 | 0.37 | 2191 | –
6 | CC(C)(Cn1c(CO)nc2c(N)nc3cccnc3c21)NS(C)(=O)=O [Example 144, N-[2-(4-Amino-2-hydroxymethyl-1H-imidazo[4,5-c][1,5]naphthyridin-1-yl)-1,1-dimethylethyl]methanesulfonamide] | – | – | – | – | Maximal Response IFN (interferon (α) (IFN-α); Table 12): 1914 pg/mL; Maximal Response TNF [1, 4]: 170 pg/mL
7 | COCc1nc2c(N)nc3cc(-c4cncc(CO)c4)ccc3c2n1CC(C)(C)O [Analog 13] | – | – | – | – | minimal effective concentration (interferon (α) (IFN-α); Table 10): 0.12 µM; Maximal Response (pg/mL) IFN (interferon (α) (IFN-α); [3]): 1771 pg/mL; minimal effective concentration ([1]; Table 10): 3.33 µM; Maximal Response (pg/mL) TNF [1, 3]: 8000 pg/mL
8 | CCCc1nc2c(N)nc3ccccc3c2n1CCCCNS(C)(=O)=O [Analog 50] | 2184 | 0.12 | 1.11 | 850 | –
9 | CS(=O)(=O)NCCCCCCCCn1c(CCO)nc2c(N)nc3ccccc3c21 [Example 119] | 8361 | 0.04 | 3.33 | 693 | –
10 | COCCc1nc2c(N)nc3ccccc3c2n1CC(C)(C)CNC(=O)Nc1ccccc1 [Analog 92] | 570 | 0.014 | 0.04 | 6449 | –
11 | CCc1nc2c(N)nc3cc(-c4cccnc4)ccc3c2n1CC(C)(C)O [Analog 8, 1-(4-amino-2-ethyl-7-pyridin-3-yl-1H-imidazo[4,5-c]quinolin-1-yl)-2-methylpropan-2-ol] | – | – | – | – | Maximal Response (pg/mL) IFN (interferon (α) (IFN-α); Table 9, background-subtracted, reference-adjusted): 1118 pg/mL; Maximal Response (pg/mL) IFN (interferon (α) (IFN-α); [3]): 1652 pg/mL; Maximal Response (pg/mL) TNF ([1]; Table 9, * = below experimental background level of 40 pg/mL): 3234 pg/mL; Maximal Response (pg/mL) TNF [1, 3]: 3571 pg/mL
12 | CC(C)(Cn1c(CO)nc2c(N)nc3cccnc3c21)NC(=O)C1CCCCC1 [Example 143, N-[2-(4-Amino-2-hydroxymethyl-1H-imidazo[4,5-c][1,5]naphthyridin-1-yl)-1,1-dimethylethyl]cyclohexanecarboxamide] | – | – | – | – | Maximal Response IFN (interferon (α) (IFN-α); Table 12): 1467 pg/mL; Maximal Response TNF [1, 4]: 798 pg/mL
13 | CC(C)(F)Cn1c(CO)nc2c(N)nc3cccnc3c21 [Example 551, [4-Amino-1-(2-fluoro-2-methylpropyl)-1H-imidazo[4,5-c][1,5]naphthyridin-2-yl]methanol] | – | – | – | – | Maximal Response IFN (interferon (α) (IFN-α); Table 12): 1833 pg/mL; Maximal Response TNF [1, 4]: 1922 pg/mL
14 | CCCc1nc2c(N)nc3ccccc3c2n1CCCNC(=O)NC(C)C [Analog 82] | 6571 | 0.12 | 1.11 | 3740 | –
15 | COCCc1nc2c(N)nc3ccccc3c2n1CCCCCCCCNC(=O)c1ccccc1 [Analog 119] | 1584 | 0.014 | 0.014 | 1995 | –
16 | COCCc1nc2c(N)nc3ccccc3c2n1CCOCCN(C)C(=O)c1ccccc1 [Analog 120] | 1394 | 0.04 | 0.37 | 3317 | –
